Assays:
[1] = Preliminary pharmacokinetics of compound of formula (I) in dog; conditions: serum, 12.5 mg
Method: (§2) Preliminary Pharmacokinetics studies of the compound of formula (I) was performed in mice and dog to determine bioavailibility and serum levels achieved and maintained by the compounds.

[2] = in vivo; conditions: mouse, po, 25 mg/kg
[3] = Acute toxicity by oral route in rats; conditions: rat, in vivo
Method: (§1) Acute toxicity of the compound of formula (I) was determined in rodents by oral route.

[4] = Acute toxicity by oral route in mice; conditions: mouse, in vivo
Method: as §1

[5] = Preliminary pharmacokinetics of compound of formula (I) in mice; conditions: mouse, in vivo
Method: as §2

[6] = system: sensitive strain of MTB; assay: Murine model of pulmonary tuberculosis, mice infected with sensitive strain; type: in vivo, Mycobacterium tuberculosis; conditions: for dose giving 2 log reduction in the organs: animals infected with sensitive strain
[7] = in vivo; conditions: dog, po, 12.5 mg
Method: as §2

[8] = system: bacterial strains used in the Ames Mutagenicity test; assay: Ames Mutagenicity test; type: cell-based; conditions: all the bacterial strains used
[9] = Pharmacokinetics of the combination with rifampicin and pyrazinamide in mice; conditions: mouse, in vivo, po; for half-life: T½
[10] = combination study, one month, doses mg/kg: (I) 25.0 where present, INH 25.0, RIF 20.0, PYR 150.0, ETH 100.0
[11] = combination study, three months, doses mg/kg: (I) 25.0 where present, INH 25.0, RIF 20.0, PYR 150.0, ETH 100.0
[12] = combination study, two months, doses mg/kg: (I) 25.0 where present, INH 25.0, RIF 20.0, PYR 150.0, ETH 100.0
[13] = monotherapy 12.5 mg/kg, 8 Weeks Treatment (two months)
[14] = monotherapy 12.5 mg/kg, 12 Weeks Treatment (three months)
[15] = monotherapy 12.5 mg/kg, one month of treatment
[16] = monotherapy 25 mg/kg, 8 Weeks Treatment (two months)
[17] = monotherapy 25 mg/kg, 12 Weeks Treatment (three months)
[18] = monotherapy 25 mg/kg, one month of treatment
[19] = monotherapy 50 mg/kg, 8 Weeks Treatment (two months)
[20] = monotherapy 50 mg/kg, 12 Weeks Treatment (three months)
[21] = monotherapy 50 mg/kg, one month of treatment
[22] = 12.5 mg/kg, (I) alone 12.5 mg/kg
[23] = given together: (I) 12.5 + RIF 20.0 + PYR 150.0 mg/kg
[24] = given together without (I): RIF 20.0 + PYR 150.0 mg/kg

SMILES: Cc1c(CN2CCN(c3cccc(C(F)(F)F)c3)CC2)cc(-c2ccccc2)n1NC(=O)c1ccncc1 [Compound of formula (I)]
- AUC(0-t) ([1]; iv): 20000 ng·h/mL
- Cmax ([1]; iv): 8650 ng/mL
- Tmax ([1]; iv): 3.48 h
- AUC(0-t) ([1]; po): 10600 ng·h/mL
- Cmax ([1]; po): 3380 ng/mL
- Tmax ([1]; po): 0.75 h
- bioavailability ([1]; po): 56.4%
- AUC [2]: 6880 ng·h/mL
- Cmax [2]: 2680 ng/mL
- Tmax [2]: 2 h
- half-life [2]: 3.41 h
- LD50 [3]: 793 mg/kg
- LD50 [4]: 700 mg/kg
- AUC(0-t) ([5]; po, 25 mg): 6880 ng·h/mL
- Cmax ([5]; po, 25 mg): 2680 ng/mL
- Tmax ([5]; po, 25 mg): 2 h
- half-life ([5]; po, 25 mg): 3.41 h
- AUC(0-t) ([5]; Mice, 12.5 mg (Oral), read-out: AUClast): 2210 ng·h/mL
- Cmax ([5]; Mice, 12.5 mg (Oral), read-out: Cmax): 660 ng/mL
- half-life ([5]; Mice, 12.5 mg (Oral), read-out: T1/2 (converted)): 5.34 h
- Tmax ([5]; Mice, 12.5 mg (Oral), read-out: Tmax): 1.5 h
- dose giving 2 log reduction in the organs [6]: 12.5 mg/kg
- Mean Log10CFU in organs of mice infected with sensitive strain of MTB, Lung [6, 10]: 3.11 ± 0.38 Log10CFU
- Mean Log10CFU in organs of mice infected with sensitive strain of MTB, Spleen [6, 10]: 2.42 ± 0.4 Log10CFU
- Mean Log10CFU in organs of mice infected with sensitive strain of MTB, Lung [6, 11]: 0.82 ± 0.91 Log10CFU
- Mean Log10CFU in organs of mice infected with sensitive strain of MTB, Spleen [6, 11]: 1.09 ± 0.83 Log10CFU
- Mean Log10CFU in organs of mice infected with sensitive strain of MTB, Lung [6, 12]: 1.86 ± 0.94 Log10CFU
- Mean Log10CFU in organs of mice infected with sensitive strain of MTB, Spleen [6, 12]: 2.60 ± 0.45 Log10CFU
- Mean Log10CFU in organs of mice infected with sensitive strain of MTB, Lung [6, 13]: 3.44 ± 0.69 Log10CFU
- Mean Log10CFU in organs of mice infected with sensitive strain of MTB, Spleen [6, 13]: 2.75 ± 0.63 Log10CFU
- Mean Log10CFU in organs of mice infected with sensitive strain of MTB, Lung [6, 14]: 2.76 ± 0.53 Log10CFU
- Mean Log10CFU in organs of mice infected with sensitive strain of MTB, Spleen [6, 14]: 2.68 ± 0.27 Log10CFU
- Mean Log10CFU in organs of mice infected with sensitive strain of MTB, Lung [6, 15]: 2.5 ± 0.35 Log10CFU
- Mean Log10CFU in organs of mice infected with sensitive strain of MTB, Spleen [6, 15]: 2.89 ± 0.32 Log10CFU
- Mean Log10CFU in organs of mice infected with sensitive strain of MTB, Lung [6, 16]: 2.89 ± 0.73 Log10CFU
- Mean Log10CFU in organs of mice infected with sensitive strain of MTB, Spleen [6, 16]: 2.37 ± 0.68 Log10CFU
- Mean Log10CFU in organs of mice infected with sensitive strain of MTB, Lung [6, 17]: 1.71 ± 1.24 Log10CFU
- Mean Log10CFU in organs of mice infected with sensitive strain of MTB, Spleen [6, 17]: 1.63 ± 0.98 Log10CFU
- Mean Log10CFU in organs of mice infected with sensitive strain of MTB, Lung [6, 18]: 2.3 ± 0.63 Log10CFU
- Mean Log10CFU in organs of mice infected with sensitive strain of MTB, Spleen [6, 18]: 2.42 ± 0.15 Log10CFU
- Mean Log10CFU in organs of mice infected with sensitive strain of MTB, Lung [6, 19]: 2.20 ± 0.56 Log10CFU
- Mean Log10CFU in organs of mice infected with sensitive strain of MTB, Spleen [6, 19]: 2.17 ± 0.46 Log10CFU
- Mean Log10CFU in organs of mice infected with sensitive strain of MTB, Lung [6, 20]: 1.46 ± 1.06 Log10CFU
- Mean Log10CFU in organs of mice infected with sensitive strain of MTB, Spleen [6, 20]: 1.56 ± 1.12 Log10CFU
- Mean Log10CFU in organs of mice infected with sensitive strain of MTB, Lung [6, 21]: 2.1 ± 0.36 Log10CFU
- Mean Log10CFU in organs of mice infected with sensitive strain of MTB, Spleen [6, 21]: 2.28 ± 0.38 Log10CFU
- half-life [7]: 5.07 h
- mutagenicity in the Ames Mutagenicity test [8]: non mutagenic
- AUC [9, 22]: 2210 ng·h/mL
- Cmax [9, 22]: 660 ng/mL
- Tmax [9, 22]: 1.5 h
- half-life [9, 22]: 5.34 h
- AUC [9, 23]: 36500 ng·h/mL
- Cmax [9, 23]: 7580 ng/mL
- Tmax [9, 23]: 2.12 h
- half-life [9, 23]: 6.73 h

SMILES: NNC(=O)c1ccncc1 [Isoniazid]
- dose giving 2 log reduction in the organs [6]: ≥ 25 mg/kg
- Mean Log10CFU in organs of mice infected with sensitive strain of MTB, Lung [6, 10]: 3.20 ± 0.45 Log10CFU
- Mean Log10CFU in organs of mice infected with sensitive strain of MTB, Spleen [6, 10]: 2.78 ± 0.30 Log10CFU
- Mean Log10CFU in organs of mice infected with sensitive strain of MTB, Lung [6, 11]: 1.20 ± 0.98 Log10CFU
- Mean Log10CFU in organs of mice infected with sensitive strain of MTB, Spleen [6, 11]: 1.35 ± 1.09 Log10CFU
- Mean Log10CFU in organs of mice infected with sensitive strain of MTB, Lung [6, 12]: 1.91 ± 0.9 Log10CFU
- Mean Log10CFU in organs of mice infected with sensitive strain of MTB, Spleen [6, 12]: 2.43 ± 0.39 Log10CFU
- Mean Log10CFU in organs of mice infected with sensitive strain of MTB, Lung [6, 13]: 3.9 ± 0.45 Log10CFU
- Mean Log10CFU in organs of mice infected with sensitive strain of MTB, Spleen [6, 13]: 3.73 ± 0.52 Log10CFU
- Mean Log10CFU in organs of mice infected with sensitive strain of MTB, Lung [6, 14]: 3.94 ± 0.28 Log10CFU
- Mean Log10CFU in organs of mice infected with sensitive strain of MTB, Spleen [6, 14]: 3.9 ± 0.37 Log10CFU
- Mean Log10CFU in organs of mice infected with sensitive strain of MTB, Lung [6, 15]: 4.56 ± 0.24 Log10CFU
- Mean Log10CFU in organs of mice infected with sensitive strain of MTB, Spleen [6, 15]: 4.93 ± 0.42 Log10CFU
- Mean Log10CFU in organs of mice infected with sensitive strain of MTB, Lung [6, 16]: 3.01 ± 0.68 Log10CFU
- Mean Log10CFU in organs of mice infected with sensitive strain of MTB, Spleen [6, 16]: 2.68 ± 0.89 Log10CFU
- Mean Log10CFU in organs of mice infected with sensitive strain of MTB, Lung [6, 17]: 3.06 ± 0.83 Log10CFU
- Mean Log10CFU in organs of mice infected with sensitive strain of MTB, Spleen [6, 17]: 2.41 ± 0.69 Log10CFU
- Mean Log10CFU in organs of mice infected with sensitive strain of MTB, Lung [6, 18]: 3.19 ± 0.6 Log10CFU
- Mean Log10CFU in organs of mice infected with sensitive strain of MTB, Spleen [6, 18]: 3.08 ± 0.44 Log10CFU
- Mean Log10CFU in organs of mice infected with sensitive strain of MTB, Lung [6, 19]: 2.45 ± 0.60 Log10CFU
- Mean Log10CFU in organs of mice infected with sensitive strain of MTB, Spleen [6, 19]: 2.30 ± 0.38 Log10CFU
- Mean Log10CFU in organs of mice infected with sensitive strain of MTB, Lung [6, 20]: 2.07 ± 0.33 Log10CFU
- Mean Log10CFU in organs of mice infected with sensitive strain of MTB, Spleen [6, 20]: 2.68 ± 0.36 Log10CFU
- Mean Log10CFU in organs of mice infected with sensitive strain of MTB, Lung [6, 21]: 2.97 ± 0.46 Log10CFU
- Mean Log10CFU in organs of mice infected with sensitive strain of MTB, Spleen [6, 21]: 2.89 ± 0.27 Log10CFU

SMILES: NC(=O)c1cnccn1 [PYR, Pyrazinamide]
- AUC [9, 24]: 649000 ng·h/mL
- AUC [9, 23]: 477000 ng·h/mL
- Cmax [9, 24]: 138000 ng/mL
- Cmax [9, 23]: 146000 ng/mL
- Tmax [9, 24]: 1.5 h
- Tmax [9, 23]: 1 h
- half-life [9, 24]: 2.09 h
- half-life [9, 23]: 2.05 h

SMILES: CO[C@H]1/C=C/O[C@@]2(C)Oc3c(C)c(O)c4c(O)c(c(/C=N/N5CCN(C)CC5)c(O)c4c3C2=O)NC(=O)/C(C)=C\C=C\[C@H](C)[C@H](O)[C@@H](C)[C@@H](O)[C@@H](C)[C@H](OC(C)=O)[C@@H]1C [Rifampicin]
- Mean Log10CFU in organs of mice infected with sensitive strain of MTB, Lung [6, 10]: 2.75 ± 0.36 Log10CFU
- Mean Log10CFU in organs of mice infected with sensitive strain of MTB, Spleen [6, 10]: 2.78 ± 0.42 Log10CFU
- Mean Log10CFU in organs of mice infected with sensitive strain of MTB, Lung [6, 11]: 0.84 ± 1.10 Log10CFU
- Mean Log10CFU in organs of mice infected with sensitive strain of MTB, Spleen [6, 11]: 1.21 ± 0.83 Log10CFU
- Mean Log10CFU in organs of mice infected with sensitive strain of MTB, Lung [6, 12]: 1.84 ± 0.95 Log10CFU
- Mean Log10CFU in organs of mice infected with sensitive strain of MTB, Spleen [6, 12]: 2.40 ± 0.7 Log10CFU
- AUC [9, 24]: 148000 ng·h/mL
- AUC [9, 23]: 195000 ng·h/mL
- Cmax [9, 24]: 15200 ng/mL
- Cmax [9, 23]: 19300 ng/mL
- Tmax [9, 24]: 2.3 h
- Tmax [9, 23]: 3.25 h
